# Several values for one entry are separate records, joined by “and”; a condition that tells them apart may be missing. Equal entries are not always repeated. Where two headings read alike, the source gives them in different places. Ends that are not written are not given here.
# Columns and labels:
# [1] = target: epitope-specific SARS-CoV-2 IgGs; test: SPR spectroscopy (Biacore T200): IgG binding to immobilized biotinylated peptide epitopes; set-up: species or system rabbit; conditions: for binding affinities (estimated Kd, order of magnitude): Example 9, kinetic fitting, streptavidin treated CM5 chip; for Kd: respective target IgG, 25° C.; for apparent Kd: kinetic analysis, very slow dissociation, beyond the instrument sensitivity limit
# [2] = tested on: SARS-CoV-2 IgG; test: Fluorescence polarization (FP) of FITC-labeled epitopes with IgG; type: binding, rabbit; conditions: 100 nM FITC-labeled epitope, 200 nM IgG, 15 min, 1×PBS
# [3] = tested on: SARS-CoV-2 IgG antibodies; test: Immunoassay with epitope-tagged AuNPs (aggregation, relative change in absorbance at 534 nm); type: binding, rabbit; conditions: for limit of detection (LOD): single epitope-functionalized AuNPs (streptavidin-biotin), respective SARS-CoV-2 IgG; for decrease of normalized plasmon peak intensity (534 nm): anti-SARS-CoV-2 S1 IgG; for LOD: detection of anti-SARS-CoV-2 S1 IgG; for nanosensor response: 100 nM anti-S1 IgG
# Description: (§1) SARS-CoV-2 IgG antibodies and control antibodies were first diluted in 1×PBS. In a typical experiment, 5 μL of prediluted antibody solution was added to 45 μL of epitope-functionalized AuNPs. The mixture was spun briefly for 20 s at 6000 rpm using a portable microcentrifuge (Profuge 6K) and incubated for another 30 min at room temperature. Absorbance spectra of the supernatant were recorded using a microplate reader (Synergy 2; BioTek). Sensor response was calculated as the relative change in absorbance at 534 nm. For a time-profile study, the absorbance spectra were recorded at 10 min intervals. For a salt-induced aggregation test, solutions of AuNPs were treated with 1×PBS and the absorbance spectra were recorded after a 30 min incubation. For a selectivity screen against other human coronaviruses, the concentration of antibodies was 100 nM. To investigate the sensitivity of AuNPs in human plasma, SARS-CoV-2 IgG rabbit antibodies were spiked into PBS containing various concentrations of human plasma, such that the final plasma concentration after mixing with AuNPs was 0%, 10%, and 20% (v/v).
# [4] = tested on: COVID19 anti-S1 IgG; test: UV-vis aggregation test of peptide-coated nanoparticles (Examples 1, 6, 7, 8); type: binding; conditions: for response to COVID-19 IgGs: single epitope thiol-AuNP conjugation with thiolyated spacer CALNN
# [5] = tested on: SARS-CoV IgG; type: binding
# [6] = tested on: MERS IgGs; type: binding
# [7] = tested on: HCoV-HKU1 IgGs; test: Immunoassay with epitope-tagged AuNPs, selectivity screen; type: binding; conditions: 100 nM antibodies
# Description: as §1
# [8] = tested on: normal human IgG; test: Immunoassay with epitope-tagged AuNPs, control IgG; type: binding
# Description: as §1
# [9] = tested on: COVID19 anti-S2 IgG; test: UV-vis aggregation test of peptide-AuNP conjugates (Example 2); type: binding; conditions: streptavidin-biotin conjugates, peptide 10 or 1 μM
# Description: Citrate-coated AuNP was functionalized with streptavidin (SA) by mixing 500 nM of SA with 8 nM of citrate-coated AuNP. The mixture was incubated at room temperature for 30 min, and unbound SA was removed from the SA-coated AuNPs (SA-AuNPs) with centrifugation at 12,500 RCF for 15 mins. Then, biotinylated S20P2 or S21P2 peptide (10 or 1 μM) was added to conjugate to the SA-AuNPs. Unreacted peptides were removed from the peptide-AuNP conjugates with centrifugation at 12500 RCF for 12 mins. The conjugates were reconstituted into ultrapure water for further tests with IgG.
# For IgG test, 20 μL of COVID19 anti-S2 IgG (SINO Biological) was added to 80 μL of peptide-AuNP conjugates in a 96-well plate. UV-vis spectrum before and after IgG addition are recorded (FIGS. 3A and B). […] For both conjugates, a higher degree of aggregation is observed when lower peptide concentration (1 μM) is used, presumably due to the diluted coating density around AuNP which poses less steric hindrance for binding with IgG.
# [10] = real-time kinetic analysis, 1:1 Langmuir model, read-out: Kd from kinetic analysis
# [11] = steady-state analysis without dissociation step, read-out: Kd from steady-state analysis
substance,measurement,setting,value
GIAVEQDKNTQEVFAQVK [S20P2],"binding affinities (estimated Kd, order of magnitude)",[1],nM
same,Kd,[1]; [10],~80 nM and 80 nM
same,Kd,[1]; [11],510 ± 34 nM
same,relative FP increase,[2],significant increase in FP values
same,limit of detection (LOD),[3],15.4 nM
NNAAIVLQLPQGTTLPKG [N4P5],"binding affinities (estimated Kd, order of magnitude)",[1],μM
same,Kd,[1]; [10],~218 nM and 218 nM
same,Kd,[1]; [11],1610 ± 120 nM
same,relative FP increase,[2],comparably lower percentage of FP increase
same,limit of detection (LOD),[3],25.8 nM
PSKPSKRSFIEDLLFNKV [S21P2],"binding affinities (estimated Kd, order of magnitude)",[1],pM
same,apparent Kd,[1],low pM range
same,Kd,[1]; [10],< 1 nM
same,Kd,[1]; [11],125 ± 7 nM
same,relative FP increase,[2],significant increase in FP values
same,limit of detection (LOD),[3],5.1 nM
same,response to COVID-19 IgGs,[4],resulted in nanoparticle aggregation
"S14P5-AuNPs: Gold nanoparticles functionalized with S14P5; streptavidin-biotin in Example 10, thiol-gold with or without CALNN spacer in Examples 1 and 6 (TESNKKFLPFQQFGRDIA; also: conjugated to gold nanoparticles via streptavidin-biotin or thiol-gold, with or without CALNN spacer)",decrease of normalized plasmon peak intensity (534 nm),[3]; first 10 min,40.2%
same,decrease of normalized plasmon peak intensity (534 nm),[3]; leveling off within 30 min,67.3%
same,LOD,[3],4.1 nM
same,limit of detection (LOD),[3],4.1 nM
same,dose-dependent aggregation response (decrease in plasmon peak intensity),[5],absent
same,normalized sensor response,[5],11.4%
same,normalized sensor response with SARS-CoV IgG relative to SARS-CoV-2 IgG (fold lower),[5]; after 60 min,6 fold
same,sensor response,[6],minimal sensor response
same,sensor response,[7],minimal sensor response
same,dose-dependent aggregation response (decrease in plasmon peak intensity),[8],absent
same,IgG concentration giving visible change in colour from red to purple,[4]; Example 1: thiol-conjugated S14P5 with CALNN blocking,≥ 100 nM
same,linear range,"[4]; Example 1: thiol-conjugated S14P5 with CALNN blocking, absorbance ratio",10 to 100 nM
same,LOD,"[4]; Example 1: thiol-conjugated S14P5 with CALNN blocking, absorbance ratio, 15 min",~30 nM and 4.5 μg/ml
same,binding / nanoparticle aggregation,"[4]; thiol-AuNP conjugation without spacer, COVID-19 anti-S1 IgG (100 nM)",unable to bind to anti COVID-19 IgGs
S14P5/S21P2-AuNPs: Streptavidin-coated gold nanoparticles functionalized with both biotinylated S14P5 and S21P2 epitopes (peptide 1 TESNKKFLPFQQFGRDIA; peptide 2 PSKPSKRSFIEDLLFNKV; also: biotinylated peptides on streptavidin-coated gold nanoparticle),recognition of anti-S1 and anti-S2 IgGs of SARS-CoV-2,[3]; 50 nM of anti-S1 IgG or anti-S2 IgG (FIG. 23),able to recognize both anti-S1 and anti-S2 IgGs
same,nanosensor response,[3]; 5-fold diluted human plasma,14.6%
same,nanosensor response,[3]; 10-fold diluted human plasma,22.8%
same,nanosensor response,[3]; pure PBS,78.2%
same,LOD,[3],3.2 nM
"S21P2-AuNPs: Streptavidin-coated gold nanoparticles functionalized with biotinylated S21P2 epitope (PSKPSKRSFIEDLLFNKV; also: biotinylated, bound to streptavidin-coated gold nanoparticles)",limit of detection (LOD),[3],5.1 nM
same,sensor response,[6],minimal sensor response
same,sensor response,[7],minimal sensor response
same,aggregation of peptide-coated AuNPs,[9],significant aggregation
TESNKKFLPFQQFGRDIA [S14P5],"binding affinities (estimated Kd, order of magnitude)",[1],pM
same,apparent Kd,[1],low pM range
same,Kd,[1]; [10],< 1 nM
same,Kd,[1]; [11],111 ± 15 nM
same,relative FP increase,[2],highest relative FP increase
same,limit of detection (LOD),[3],4.1 nM
same,response to COVID-19 IgGs,[4],resulted in nanoparticle aggregation
